Measurements: paper PMC4859512, “Polyamino-Isoprenic Derivatives Block Intrinsic Resistance of P. aeruginosa to Doxycycline and Chloramphenicol In Vitro” (PLoS ONE, 2016)
Residues, ends and D or L forms follow the SMILES beside them. *: point of attachment. βNA = c1ccc2cc(N*)ccc2c1

Experiments:
[1] = system: CHO-K1 cells; assay: cells; assay type: cell-based, Chinese Hamster; settings: Cricetulus griseus, CHO-K1; WST1, 24 h; mean +/- SD, 2 independent experiments
Procedure: (§1) CHO-K1 cells (ATCC-LGC Standards Sarl (Molsheim, France) and human fibroblasts (Clinisciences, Paris, France) were maintained in McCoy’s 5A and DMEM media, respectively, supplemented with 10% bovine calf serum, 2 mM glutamine, and 100 U/mL/10 μg/mL penicillin/streptomycin. They were incubated at 37°C in a humidified atmosphere containing 5% CO2. The cell lines were seeded in 96-well plates and incubated overnight. The cytotoxic effects of compounds were assessed by the colorimetric WST-1 cell proliferation assay as previously described. Briefly, a range of compound concentrations from 30 μM to 1200 μM was added to triplicate cultures, and cells were incubated at 37°C for 24 h. At the end of the incubation period, cultures were washed three times with phosphate buffer saline (PBS) and incubated in fresh culture medium containing 10% WST-1 for an additional 30 min. Cell viability was evaluated by measuring the WST-1 absorbance at 450 nm in a microplate spectrophotometer MRX1 II (Dynex technologies, Chantilly, VA, USA). The Inhibitory Concentration 50% (IC50) was chosen to evaluate the cytotoxicity of compounds. IC50 was defined as the concentration of a compound that induced a 50% decrease in viable cells. Doxorubicin was used as a positive control.

[2] = system: human fibroblasts; assay: WST-1 cytotoxicity test, fibroblasts; assay type: cell-based; settings: Homo sapiens, Fibroblast; WST1, 24 h; mean +/- SD, 2 independent experiments
Procedure: as §1

[3] = system: P. aeruginosa PA01 (wt); assay: Antibiotic susceptibility testing (broth micro-dilution MIC), strain PA01; assay type: cell-based, Pseudomonas aeruginosa; settings: PA01
Procedure: (§2) Experiments were performed on the BAC-SCREEN platform of the UMR-MD1, with a Freedom EVO 150 liquid handling system (Tecan, Lyon, France).
(§3) The same experiment was performed using chloramphenicol (4 mg/L) in combination with 3 (10 μM final concentration). […] These experiments were performed to study the effect of our compounds on the natural resistance of P. aeruginosa. […] Experiments were performed with the ß-lactams ceftazidime and ticarcillin and ciprofloxacin and amikacin.

[4] = system: P. aeruginosa PT629 (Mex AB overproducer); assay: Antibiotic susceptibility testing (broth micro-dilution MIC), strain PT629; assay type: cell-based, Pseudomonas aeruginosa; settings: PT629
Procedure: as §2
(§4) We concluded that compound 3 was the best compound and suitable for a more detailed study. The same experiment was performed using chloramphenicol (4 mg/L) in combination with 3 (10 μM final concentration). Amongst the 20 clinical isolates, the growth of 15 (75%) was impaired, while 5 (25%) were resistant (data not shown). These experiments were performed to study the effect of our compounds on the natural resistance of P. aeruginosa. In addition, we were wondering if compound 3 could also increase susceptibility to other antibiotic families including ß-Lactams, fluoroquinolones and aminoglycosides, that are representative of the main classes of anti-pseudomonal agents. Experiments were performed with the ß-lactams ceftazidime and ticarcillin and ciprofloxacin and amikacin. […] . […] To better characterize compound 3, we first searched for the minimum concentration of compound that allowed killing of bacteria by doxycycline, and PAßN was used as the reference molecule.

[5] = system: P. aeruginosa PA01 ERY^R (Mex CD overproducer); assay: microbe, parasite or virus in culture; assay type: cell-based, Pseudomonas aeruginosa; settings: PA01 ERY R
Procedure: as §2, §3

[6] = system: P. aeruginosa PA0-7H (Mex EF overproducer); assay: Antibiotic susceptibility testing (broth micro-dilution MIC), strain PA0-7H; assay type: cell-based, Pseudomonas aeruginosa; settings: PA0-7H
Procedure: as §2, §4

[7] = system: P. aeruginosa CMZ091 (Mex XY overproducer); assay: Antibiotic susceptibility testing (broth micro-dilution MIC), strain CMZ091; assay type: cell-based, Pseudomonas aeruginosa; settings: CMZ091
Procedure: as §2, §4

[8] = system: P. aeruginosa PA01; assay: Comparison of efficiency between compounds and PAßN (compound gradient with 2 mg/L doxycycline); assay type: cell-based, Pseudomonas aeruginosa; settings: PA01, doxycycline 2 mg/L, 18 h
Procedure: Serial dilutions of each compound (from 270 μM to 0.95 μM for PAßN and from 135 μM to 0.06 μM for 3) were prepared in microplates. Doxycycline (2 mg/L) was then added to each well before inoculation of bacteria (5x10^5 cfu/mL). Optical density (600 nm) was measured after 18 hours at 37°C. Only the relevant part of the graphs are shown. Experiments were performed in triplicate.
First, we performed a checkerboard assay to analyze the synergy between doxycycline and the polyamino-isoprenic compound and between doxycycline and PAβN. For both, compound 3 and PAβN we observed a synergistic inhibition of growth when combined with doxycycline with a FIC Index of 0.09 (S2 Table). […] PAßN is generally used at a concentration greater than 10 μM to inhibit the resistance of P. aeruginosa with respect to various antibiotics, and, to our knowledge, no data have been reported in the literature on its use in combination with doxycycline. The percentage of growth inhibition was monitored as a function of compound concentration, and the results are presented in Fig 3.

[9] = system: P. aeruginosa PA01; assay: Checkerboard assay with doxycycline; assay type: cell-based, Pseudomonas aeruginosa; settings: PA01
Procedure: Serial two-fold dilutions of antimicrobial agents were mixed together in a microtiter plate. The range of concentration of each drug was twice the MIC, down to the eleventh serial two-fold dilutions below this amount. Doxycycline was serially diluted along the X-axis, and the polyamino-isoprenic compound or PAßN was diluted along the Y-axis as indicated. Each well was inoculated with a bacterial inoculum of 5 x 10^5 CFU/ml, and the plates were incubated at 37°C for 18 h under aerobic conditions. Each plate also contained a row and a column in which a serial dilution of polyamino-isoprenic compound or doxycycline, respectively, was present alone to determine the MIC. The FIC index was calculated as follows: FIC index = FIC A + FIC B, where FIC A is the MIC of drug A in the combination/MIC of drug A alone and FIC B is the MIC of drug B in the combination/MIC of drug B alone. The combination was considered synergistic when the FIC index is ≤0.5, and antagonistic when the FIC index is > 4 [26].

[10] = doxycycline MIC in the combination 0.125 µg/ml
[11] = doxycycline MIC in the combination 0.25 µg/ml
[12] = doxycycline MIC in the combination 0.5 µg/ml
[13] = doxycycline MIC in the combination 1 µg/ml
[14] = doxycycline MIC in the combination 2 µg/ml
[15] = doxycycline MIC in the combination 4 µg/ml
[16] = doxycycline MIC in the combination 8 µg/ml
[17] = doxycycline MIC in the combination 16 µg/ml

SMILES: COc1cccc2c1C(=O)c1c(O)c3c(c(O)c1C2=O)C[C@@](O)(C(=O)CO)C[C@@H]3O[C@H]1C[C@H](N)[C@H](O)[C@H](C)O1 [Doxorubicin, reference compound]
- IC50 [1]: 48.3 ± 6.8 µM
- IC50 [2]: 12.4 ± 2.1 µM

SMILES: NC(N)=NCCC[C@H](NC(=O)[C@@H](N)Cc1ccccc1)C(=O)Nc1ccc2ccccc2c1 [PAßN, Phenylalanine-Arginine Beta-Naphthylamide, reference compound] (H-Phe-Arg-βNA)
- MIC of Amikacin in the presence of the compound ([3]; compound 10µM): 16 mg/L
- MIC of Ceftazidime in the presence of the compound ([3]; compound 10µM): 2 mg/L
- MIC of Ciprofloxacin in the presence of the compound ([3]; compound 10µM): 0.125 mg/L
- MIC of Ticarcillin in the presence of the compound ([3]; compound 10µM): 32 mg/L
- MIC of Amikacin in the presence of the compound ([3]; compound 30µM): 16 mg/L
- MIC of Ceftazidime in the presence of the compound ([3]; compound 30µM): 1 mg/L
- MIC of Ciprofloxacin in the presence of the compound ([3]; compound 30µM): ≤ 0.06 mg/L
- MIC of Ticarcillin in the presence of the compound ([3]; compound 30µM): 32 mg/L
- MIC of Amikacin in the presence of the compound ([4]; compound 10µM): 4 mg/L
- MIC of Ceftazidime in the presence of the compound ([4]; compound 10µM): 8 mg/L
- MIC of Ciprofloxacin in the presence of the compound ([4]; compound 10µM): 0.5 mg/L
- MIC of Ticarcillin in the presence of the compound ([4]; compound 10µM): > 64 mg/L
- MIC of Amikacin in the presence of the compound ([4]; compound 30µM): 4 to 8 mg/L
- MIC of Ceftazidime in the presence of the compound ([4]; compound 30µM): 2 to 4 mg/L
- MIC of Ciprofloxacin in the presence of the compound ([4]; compound 30µM): 0.5 mg/L
- MIC of Ticarcillin in the presence of the compound ([4]; compound 30µM): > 64 mg/L
- MIC of Amikacin in the presence of the compound ([5]; compound 10µM): 2 mg/L
- MIC of Ceftazidime in the presence of the compound ([5]; compound 10µM): 2 mg/L
- MIC of Ciprofloxacin in the presence of the compound ([5]; compound 10µM): 0.125 mg/L
- MIC of Ticarcillin in the presence of the compound ([5]; compound 10µM): 32 mg/L
- MIC of Amikacin in the presence of the compound ([5]; compound 30µM): 2 mg/L
- MIC of Ceftazidime in the presence of the compound ([5]; compound 30µM): 2 mg/L
- MIC of Ciprofloxacin in the presence of the compound ([5]; compound 30µM): ≤ 0.06 mg/L
- MIC of Ticarcillin in the presence of the compound ([5]; compound 30µM): 32 mg/L
- MIC of Amikacin in the presence of the compound ([6]; compound 10µM): 4 mg/L
- MIC of Ceftazidime in the presence of the compound ([6]; compound 10µM): 1 mg/L
- MIC of Ciprofloxacin in the presence of the compound ([6]; compound 10µM): 4 mg/L
- MIC of Ticarcillin in the presence of the compound ([6]; compound 10µM): 8 mg/L
- MIC of Amikacin in the presence of the compound ([6]; compound 30µM): 4 mg/L
- MIC of Ceftazidime in the presence of the compound ([6]; compound 30µM): 1 mg/L
- MIC of Ciprofloxacin in the presence of the compound ([6]; compound 30µM): 4 mg/L
- MIC of Ticarcillin in the presence of the compound ([6]; compound 30µM): 8 mg/L
- MIC of Amikacin in the presence of the compound ([7]; compound 10µM): 64 mg/L
- MIC of Ceftazidime in the presence of the compound ([7]; compound 10µM): 2 mg/L
- MIC of Ciprofloxacin in the presence of the compound ([7]; compound 10µM): 0.5 mg/L
- MIC of Ticarcillin in the presence of the compound ([7]; compound 10µM): 16 to 32 mg/L
- MIC of Amikacin in the presence of the compound ([7]; compound 30µM): 32 to 64 mg/L
- MIC of Ceftazidime in the presence of the compound ([7]; compound 30µM): 2 mg/L
- MIC of Ciprofloxacin in the presence of the compound ([7]; compound 30µM): 0.25 mg/L
- MIC of Ticarcillin in the presence of the compound ([7]; compound 30µM): 16 to 32 mg/L
- concentration needed to inhibit growth in the presence of doxycycline [8]: ≥ 15.6 mg/L
- concentration needed to inhibit growth in the presence of doxycycline ([8]; graphically determined on Fig 3): ≥ 30 µM
- Concentration of compound associated [9, 10]: 128 µM
- Effect [9, 10]: Synergistic (synergistic when the FIC index is ≤0.5)
- FIC index [9, 10]: 0.13
- Concentration of compound associated [9, 11]: 32 µM
- Effect [9, 11]: Synergistic (synergistic when the FIC index is ≤0.5)
- FIC index [9, 11]: 0.04
- Concentration of compound associated [9, 12]: 32 µM
- Effect [9, 12]: Synergistic (synergistic when the FIC index is ≤0.5)
- FIC index [9, 12]: 0.05
- Concentration of compound associated [9, 13]: 32 µM
- Effect [9, 13]: Synergistic (synergistic when the FIC index is ≤0.5)
- FIC index [9, 13]: 0.06
- Concentration of compound associated [9, 14]: 32 µM
- Effect [9, 14]: Synergistic (synergistic when the FIC index is ≤0.5)
- FIC index [9, 14]: 0.09
- Concentration of compound associated [9, 15]: 8 µM
- Effect [9, 15]: Synergistic (synergistic when the FIC index is ≤0.5)
- FIC index [9, 15]: 0.13
- Concentration of compound associated [9, 16]: 4 µM
- Effect [9, 16]: Synergistic (synergistic when the FIC index is ≤0.5)
- Concentration of compound associated [9, 17]: 2 µM
- Effect [9, 17]: Synergistic (synergistic when the FIC index is ≤0.5)
- FIC index [9, 17]: 0.5
- FIC index ([9]; combination with doxycycline): 0.09
